Test results reported in article PMC7714403 (JCI Insight, 2020).
“And” between values parts separate entries of the source, which are not always exact repeats. Identical values can stand only once.

Columns and labels:
FLT3 = target: T1, FLT3 (Homo sapiens, UniProt P36888); assay: KdELECT binding assay; settings: FLT3 WT
T1 construct: purchased Eurofins DiscoverX

FLT3 ITD = FLT3 ITD (Homo sapiens, UniProt P36888, ITD); assay: KdELECT binding assay
FLT3 ITD/F691L = FLT3 ITD/F691L (Homo sapiens, UniProt P36888, F691L/ITD); assay: KdELECT binding assay
CDK11, CDK8 = assay: KiNativ, OCI cells live cell; format: cell-based, human; settings: labeling site Lys2, peptide DLKPANILVMGEGPER
[1] = test system: FGFR1, FMS, PDGFRb, TYRO3; assay: KiNativ, OCI cells live cell; format: cell-based, human; settings: labeling site Lys1, peptide VAVKMLK
LATS1 = target: T2, LATS1 (Homo sapiens, UniProt O95835); assay: KiNativ, OCI cells live cell; format: cell-based; settings: 2 h
T2 sequence (O95835 1-1130): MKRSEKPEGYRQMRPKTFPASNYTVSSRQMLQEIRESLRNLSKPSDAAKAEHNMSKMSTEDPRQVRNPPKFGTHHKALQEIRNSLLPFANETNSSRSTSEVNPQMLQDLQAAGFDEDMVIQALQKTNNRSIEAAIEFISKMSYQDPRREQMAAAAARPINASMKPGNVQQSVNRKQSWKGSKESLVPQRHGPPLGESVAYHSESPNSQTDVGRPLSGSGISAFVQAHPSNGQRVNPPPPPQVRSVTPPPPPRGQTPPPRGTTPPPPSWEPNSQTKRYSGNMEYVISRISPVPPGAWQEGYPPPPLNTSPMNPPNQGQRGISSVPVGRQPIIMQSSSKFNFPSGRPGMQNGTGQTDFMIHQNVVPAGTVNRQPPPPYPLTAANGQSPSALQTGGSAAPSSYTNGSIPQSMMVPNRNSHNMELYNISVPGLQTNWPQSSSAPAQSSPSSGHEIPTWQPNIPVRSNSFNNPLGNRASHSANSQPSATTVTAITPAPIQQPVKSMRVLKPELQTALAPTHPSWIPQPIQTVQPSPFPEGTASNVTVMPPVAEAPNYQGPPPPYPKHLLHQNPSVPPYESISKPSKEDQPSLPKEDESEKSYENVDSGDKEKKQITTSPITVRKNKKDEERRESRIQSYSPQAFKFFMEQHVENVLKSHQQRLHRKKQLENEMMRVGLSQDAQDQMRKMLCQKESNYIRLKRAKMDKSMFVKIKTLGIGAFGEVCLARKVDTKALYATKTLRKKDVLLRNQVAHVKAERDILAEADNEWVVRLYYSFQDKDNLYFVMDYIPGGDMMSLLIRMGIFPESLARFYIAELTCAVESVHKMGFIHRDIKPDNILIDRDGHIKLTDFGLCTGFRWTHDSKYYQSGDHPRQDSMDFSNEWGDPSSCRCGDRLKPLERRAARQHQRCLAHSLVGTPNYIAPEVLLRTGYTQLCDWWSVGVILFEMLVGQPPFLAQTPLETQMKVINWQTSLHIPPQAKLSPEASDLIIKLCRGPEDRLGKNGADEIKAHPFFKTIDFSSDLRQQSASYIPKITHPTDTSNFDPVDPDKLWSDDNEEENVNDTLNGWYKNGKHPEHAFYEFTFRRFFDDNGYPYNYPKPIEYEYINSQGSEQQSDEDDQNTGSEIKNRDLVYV

LKB1 = LKB1 (Homo sapiens, UniProt Q15831); assay: KiNativ, OCI cells live cell; format: cell-based; settings: 2 h, labeling site Lys2, peptide […]
LOK = LOK (Homo sapiens, UniProt O94804); assay: KiNativ, OCI cells live cell; format: cell-based; settings: labeling site Lys2, peptide DLKAGNVLMTLEGDIR
MAP3K2 = MAP3K2 (Homo sapiens, UniProt Q9Y2U5); assay: KiNativ, OCI cells live cell; format: cell-based; settings: 2 h, labeling site Lys1, peptide […]
MLKL = target: T3, MLKL (Homo sapiens, UniProt Q8NB16); assay: KiNativ, OCI cells live cell; format: cell-based; settings: 2 h, labeling site Lys1, peptide […]
T3 sequence (Q8NB16 1-471): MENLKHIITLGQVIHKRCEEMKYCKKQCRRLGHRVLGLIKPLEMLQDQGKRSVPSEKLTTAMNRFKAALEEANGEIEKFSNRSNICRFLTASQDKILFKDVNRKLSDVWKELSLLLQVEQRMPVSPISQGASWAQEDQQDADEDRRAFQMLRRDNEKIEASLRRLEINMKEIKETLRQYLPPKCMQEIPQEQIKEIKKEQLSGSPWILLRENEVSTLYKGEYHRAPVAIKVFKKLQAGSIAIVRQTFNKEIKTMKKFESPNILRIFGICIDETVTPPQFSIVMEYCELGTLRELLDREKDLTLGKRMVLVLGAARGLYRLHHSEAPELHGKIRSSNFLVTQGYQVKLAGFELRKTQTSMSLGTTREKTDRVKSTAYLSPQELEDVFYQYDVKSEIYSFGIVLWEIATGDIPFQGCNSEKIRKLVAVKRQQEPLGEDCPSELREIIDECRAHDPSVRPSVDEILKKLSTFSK

p70S6Kb = p70S6Kb (Homo sapiens, UniProt Q9UBS0); assay: KiNativ, OCI cells live cell; format: cell-based; settings: 2 h
PFTAIRE1 = PFTAIRE1 (Homo sapiens, UniProt O94921); assay: KiNativ, OCI cells live cell; format: cell-based
PIP4K2B = PIP4K2B (Homo sapiens, UniProt P78356); assay: KiNativ, OCI cells live cell; format: cell-based; settings: 2 h, labeling site ATP, peptide […]
PITSLRE = PITSLRE (Homo sapiens, UniProt P21127); assay: KiNativ, OCI cells live cell; format: cell-based; settings: 2 h, labeling site Lys2, peptide […]
PKCd = PKCd (Homo sapiens, UniProt Q05655); assay: KiNativ, OCI cells live cell; format: cell-based; settings: 2 h, labeling site Other, peptide […]
RIPK3 = RIPK3 (Homo sapiens, UniProt Q9Y572); assay: KiNativ, OCI cells live cell; format: cell-based; settings: 2 h, labeling site Lys2, peptide […]
Wnk1, Wnk2, Wnk3 = assay: KiNativ, OCI cells live cell; format: cell-based, human; settings: labeling site Lys2, peptide DLKCDNIFITGPTGSVK
BTK = BTK (Homo sapiens, UniProt Q06187); assay: KdELECT binding assay; parameters: purchased Eurofins DiscoverX

## CN1CCN(Cc2ccc(Nc3ncc(Cl)c(Nc4ccccc4S(=O)(=O)N(C)C)n3)cc2)CC1 [TP-0903]
FLT3
  Kd: 0.93 nM and < 5 nM
FLT3 ITD
  Kd: 5.6 nM
FLT3 ITD/F691L
  Kd: 1.9 nM
CDK11, CDK8
  Inhibition: -14.9%
[1]
  Inhibition: 4.2%
LATS1; labeling site Lys1, peptide ALYATKTLR
  inhibition at 0.1 µM: 11.6%
LATS1; labeling site Lys2, peptide DIKPDNILIDR
  inhibition at 0.1 µM: 7.9%
LKB1
  inhibition at 0.1 µM: 25.7%
LOK
  Inhibition: 86.9%
MAP3K2
  inhibition at 0.1 µM: 30.6%
MLKL
  inhibition at 0.1 µM: -29.6%
p70S6Kb; labeling site Lys1, peptide IYAMKVLR
  inhibition at 0.1 µM: -2.8%
p70S6Kb; labeling site Lys2, peptide DLKPENIMLSSQGHIK
  inhibition at 0.1 µM: -18.3%
PFTAIRE1; labeling site Lys1, peptide LVALKVIR
  Inhibition: 62.2%
PFTAIRE1; labeling site Lys2, peptide DLKPQNLLISDTGELK
  Inhibition: 72.4%
PIP4K2B
  inhibition at 0.1 µM: -24.4%
PITSLRE
  inhibition at 0.1 µM: -18.9%
PKCd
  inhibition at 0.1 µM: -22.5%
RIPK3
  inhibition at 0.1 µM: 2.8%
Wnk1, Wnk2, Wnk3
  Inhibition: -14.9%
BTK
  Kd: 13 nM
